Source: patent publication US11478471B2, “Methods and compositions for treating diabetes, metabolic syndrome and other conditions” (priority 2005, dated 2022)
≈ marks a conversion by molar mass, not a printed value.

What was measured:
[1] = tested on: Candida tropicalis; experiment: Antifungal MIC; type: cell-based
[2] = tested on: plasma corticosterone; experiment: Plasma corticosterone in rats after oral dosing (ELISA); type: in vivo, Sprague Dawley rats; settings: for Corticosteroid Levels (mean ± SEM): 4 h after gavage
Description: To generate the results shown in FIG. 1, five groups (eight per group) of rats were used. The rats were maintained on a 14/10 hour light/dark cycle and allowed free access to food and water. Each rat was dosed (200 mg drug/kg body weight) via a gastric tube. […] All of the rats were dosed between 2.00 and 3.00 pm and were sacrificed four hours later (between 6.00 and 7.00 pm). Plasma was prepared and the concentration of corticosterone determined by an enzyme linked immuno assay (ELISA). In rats, the predominant active glucocorticoid is corticosterone; in humans, the predominant active glucucorticoid is the closely related molecule cortisol.
The rats were maintained and dosed as described above. Plasma was prepared and the concentration of corticosterone in the plasma determined by ELISA.
The rats were maintained as described above; the drugs were suspended in olive oil, and each rat was dosed once via gastric tube to achieve a dose of 200 mg/kg. All of the rats were dosed at a specific time so that all terminations occurred between 6 and 7 pm. […] Following sacrifice, plasma was prepared, and the concentration of corticosterone in the plasma was determined by ELISA. In the same plasma samples, total cholesterol levels were also determined.
In the Table, corticosterone levels (mean±SEM; ng/mL) were determined four hours after oral gavage of the indicated drug (N=10/group). There was a single control group (dosed with vehicle).
Corticosterone levels (mean±SEM; ng/mL) were determined at the indicated times after oral gavage of the indicated drug at 200 mg/kg. […] The means of the vehicle treated groups are used as the time zero control point.

[3] = tested on: Candida guilliermondii; experiment: Antifungal MIC; type: cell-based; settings: Meyerozyma guilliermondii, DSM11947; DSM strain 11947, 48 h
[4] = tested on: testosterone levels; experiment: Testosterone levels in rats after oral dosing; type: in vivo, Sprague Dawley rats; settings: for Testosterone levels (mean ± SEM): 4 h after gavage
Text: There was a single control group (dosed with vehicle).
The means of the vehicle treated groups are used as the time zero control point.

[5] = tested on: Cryptococcus neoformans; experiment: Antifungal MIC; type: cell-based
[6] = tested on: Saccharomyces cerevisiae; experiment: Antifungal MIC; type: cell-based; settings: DSM01333, DSM strain 01333, 48 h
[7] = tested on: Candida glabrata; experiment: Antifungal MIC; type: cell-based; settings: Nakaseomyces glabratus
[8] = Toxicokinetics in the 28 day dog study of DIO-902 (with racemic ketoconazole group a); settings: beagle, plasma, dogs; for concentration at 0 h / concentration at 1 h / concentration at 2 h / concentration at 4 h / concentration at 8 h / concentration at 12 h: Drug concentration in plasma; for AUC(0-t): AUC(0-12); for Tmax: Tmax Range;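 as to all read-outs here: beagle dogs dosed orally once daily within a 28-day GLP study, 3 animals per sex per group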
[9] = tested on: Candida kefyr; experiment: Antifungal MIC; type: cell-based; settings: Kluyveromyces marxianus, DSM11954; DSM strain 11954, 48 h
[10] = female, oral, 20 mg/kg, group a: 20 mg/kg oral (after 40 mg/kg days 1-9, pause), day 28, F
[11] = female, po, 20 mg/kg, group a: 20 mg/kg oral (after 40 mg/kg days 1-9, pause), day 28, F
[12] = female, po, 40 mg/kg, group a: 40 mg/kg oral, day 1, F
[13] = male, oral, 20 mg/kg, group a: 20 mg/kg oral (after 40 mg/kg days 1-9, pause), day 28, M
[14] = male, po, 20 mg/kg, group a: 20 mg/kg oral (after 40 mg/kg days 1-9, pause), day 28, M
[15] = male, po, 40 mg/kg, group a: 40 mg/kg oral, day 1, M

`CC(=O)N1CCN(c2ccc(OCC3COC(Cn4ccnc4)(c4ccc(Cl)cc4Cl)O3)cc2)CC1` (racemic) [Racemic ketoconazole, 1-acetyl-4-[4-[[2-(2,4-dichlorophenyl)-2-[(1H-imidazol-1-yl)-methyl]-1,3-dioxolan-4-yl]methoxy]phenyl]piperazine] showed an MIC ([1]; DSM11951, 48 h) of 0.125 µg/mL (≈ 0.235 µM), an MIC ([1]; DSM11952, 48 h) of 4 µg/mL (≈ 7.53 µM) and an MIC ([1]; DSM11953, 48 h) of 0.06 µg/mL (≈ 0.113 µM). The “efficacy at lowering corticosterone, time course (FIG. 3)” value ([2]; 200 mg/kg oral, up to 24 hours) was “intermediate between the two enantiomers”, the “Corticosteroid Levels (mean ± SEM)” value ([2]; single oral 50 mg/kg) was 215 ± 20.7 ng/mL and the “Corticosteroid Levels (mean ± SEM)” value ([2]; single oral 100 mg/kg) was 210 ± 15.5 ng/mL. For the same molecule, the “Corticosteroid Levels (mean ± SEM), time course” value ([2]; single oral 200 mg/kg, 4 h) was 134 ± 10 ng/mL, the “Corticosteroid Levels (mean ± SEM)” value ([2]; single oral 200 mg/kg) was 135 ± 13.7 ng/mL and the “Corticosteroid Levels (mean ± SEM), time course” value ([2]; single oral 200 mg/kg, 8 h) was 163 ± 11 ng/mL. For the same molecule, the “Corticosteroid Levels (mean ± SEM), time course” value ([2]; single oral 200 mg/kg, 12 h) was 153 ± 14 ng/mL, the “Corticosteroid Levels (mean ± SEM), time course” value ([2]; single oral 200 mg/kg, 16 h) was 132 ± 6 ng/mL and the “Corticosteroid Levels (mean ± SEM), time course” value ([2]; single oral 200 mg/kg, 20 h) was 147 ± 17 ng/mL. For the same molecule, the “Corticosteroid Levels (mean ± SEM), time course” value ([2]; single oral 200 mg/kg, 24 h) was 151 ± 14 ng/mL, the “Corticosteroid Levels (mean ± SEM)” value ([2]; single oral 400 mg/kg) was 113 ± 6.6 ng/mL and the “Corticosteroid Levels (mean ± SEM)” value ([2]; single oral 600 mg/kg) was 115 ± 14.3 ng/mL. The MIC [3] was 0.125 µg/mL (≈ 0.235 µM), the “Testosterone levels (mean ± SEM)” value ([4]; single oral 50 mg/kg) was 2.7 ± 0.6 nmol/L and the “Testosterone levels (mean ± SEM)” value ([4]; single oral 100 mg/kg) was 1.7 ± 0.5 nmol/L. For the same molecule, the “Testosterone levels (mean ± SEM), time course” value ([4]; single oral 200 mg/kg, 4 h) was 1.6 ± 0.6 nmol/L, the “Testosterone levels (mean ± SEM)” value ([4]; single oral 200 mg/kg) was 0.4 ± 0.2 nmol/L and the “Testosterone levels (mean ± SEM), time course” value ([4]; single oral 200 mg/kg, 8 h) was 8.0 ± 1.0 nmol/L. For the same molecule, the “Testosterone levels (mean ± SEM), time course” value ([4]; single oral 200 mg/kg, 12 h) was 4.6 ± 0.6 nmol/L, the “Testosterone levels (mean ± SEM), time course” value ([4]; single oral 200 mg/kg, 16 h) was 3.8 ± 0.5 nmol/L and the “Testosterone levels (mean ± SEM), time course” value ([4]; single oral 200 mg/kg, 20 h) was 5.6 ± 0.8 nmol/L. For the same molecule, the “Testosterone levels (mean ± SEM), time course” value ([4]; single oral 200 mg/kg, 24 h) was 5.9 ± 0.5 nmol/L, the “Testosterone levels (mean ± SEM)” value ([4]; single oral 400 mg/kg) was 0.4 ± 0.2 nmol/L and the “Testosterone levels (mean ± SEM)” value ([4]; single oral 600 mg/kg) was 0.8 ± 0.1 nmol/L. It also gave an MIC ([5]; DSM11959, DSM strain 11959, 48 h) of 0.06 µg/mL (≈ 0.113 µM), an MIC ([5]; DSM11960, DSM strain 11960, 48 h) of 0.125 µg/mL (≈ 0.235 µM) and an MIC [6] of 0.25 µg/mL (≈ 0.47 µM). The MIC ([7]; DSM11226, 48 h) was 0.5 µg/mL (≈ 0.941 µM), the MIC ([7]; DSM11950, 48 h) was 0.25 µg/mL (≈ 0.47 µM) and the concentration at 0 h [8, 10] was less than 250 ng/mL. It also gave a concentration at 1 h [8, 10] of less than 250 ng/mL, a concentration at 2 h [8, 10] of 270 ng/mL and a concentration at 4 h [8, 10] of 350 ng/mL. For the same molecule, the concentration at 8 h [8, 10] was 310 ng/mL, the concentration at 12 h [8, 10] was less than 250 ng/mL and the AUC(0-t) ([8]; female, po, 20 mg/kg, group a: 20 mg/kg oral (after 40 mg/kg days 1-9, pause), day 28, F, n = 1) was 4700 ng·h/mL. It also gave a Cmax [8, 11] of 550 ng/mL, a Tmax [8, 11] of 2 to 8 h and an AUC(0-t) [8, 12] of 185000 ng·h/mL. It also gave a Cmax [8, 12] of 21300 ng/mL, a concentration at 0 h [8, 12] of less than 250 ng/mL and a concentration at 1 h [8, 12] of 4290 ng/mL. The concentration at 2 h [8, 12] was 12300 ng/mL, the concentration at 4 h [8, 12] was 20100 ng/mL and the concentration at 8 h [8, 12] was 18300 ng/mL. For the same molecule, the concentration at 12 h [8, 12] was 14800 ng/mL, the Tmax [8, 12] was 4 to 8 h and the concentration at 0 h [8, 13] was less than 250 ng/mL. It also gave a concentration at 1 h [8, 13] of less than 250 ng/mL, a concentration at 2 h [8, 13] of 280 ng/mL and a concentration at 4 h [8, 13] of less than 250 ng/mL. It also gave a concentration at 8 h [8, 13] of less than 250 ng/mL, a concentration at 12 h [8, 13] of less than 250 ng/mL and an AUC(0-t) ([8]; male, po, 20 mg/kg, group a: 20 mg/kg oral (after 40 mg/kg days 1-9, pause), day 28, M, n = 1) of 3420 ng·h/mL. For the same molecule, the Cmax [8, 14] was 510 ng/mL, the Tmax [8, 14] was 1 to 8 h and the AUC(0-t) [8, 15] was 143000 ng·h/mL. The Cmax [8, 15] was 16600 ng/mL, the concentration at 0 h [8, 15] was less than 250 ng/mL and the concentration at 1 h [8, 15] was 5600 ng/mL. The concentration at 2 h [8, 15] was 8870 ng/mL, the concentration at 4 h [8, 15] was 10800 ng/mL and the concentration at 8 h [8, 15] was 16600 ng/mL. For the same molecule, the concentration at 12 h [8, 15] was 12800 ng/mL, the Tmax [8, 15] was 8 h and the MIC [9] was 0.03 µg/mL (≈ 0.0565 µM).
